Test results reported in patent publication US10561739B2, “Targeted pyrrolobenzodiazapine conjugates” (priority 2010, dated 2020).

What was measured:
Type in all cases: cell-based
[1] = system: MCF-7 cells; experiment: Free drug cytotoxicity assay, MCF-7 (Table 2); conditions: Homo sapiens
Protocol: (§1) For a 96-hour assay, cells cultured in log-phase growth were seeded for 24 h in 96-well plates containing 150 μL RPMI 1640 supplemented with 20% FBS. Serial dilutions of test article (i.e., free drug) in cell culture media were prepared at 4× working concentration; 50 μL of each dilution was added to the 96-well plates. Following addition of test article, the cells were incubated with test articles for 4 days at 37° C. Resazurin was then added to each well to achieve a 50 μM final concentration, and the plates were incubated for an additional 4 h at 37° C. The plates were then read for the extent of dye reduction on a Fusion HT plate reader (Packard Instruments, Meridien, Conn., USA) with excitation and emission wavelengths of 530 and 590 nm, respectively. The IC50 value, determined in triplicate, is defined here as the concentration that results in a 50% reduction in cell growth relative to untreated controls.
Referring to the following Table 2, the activity of compounds 28, 30 and 32 is shown on L428, 786-O, HEL, HL-60 and MCF-7 cells, as well as the activity for compound 19 on MCF-7 cells.

[2] = system: Caki-1 cells; experiment: Free drug 48 hour Cell Titer Glo cytotoxicity, Caki-1; conditions: Homo sapiens, Table 3, 48 hours, read-out: IC50 Summary for Free Drugs, Caki-1
Protocol: (§2) Referring to the following Table 3, the activities of compounds 23, 25, are compared to that of compound 11 on 786-O, Caki-1, MCF-7, HL-60, THP-1, HEL, and TF1 cells. Cells were plated in 150 μL growth media per well into black-sided clear-bottom 96-well plates (Costar, Corning) and allowed to settle for 1 hour in the biological cabinet before placing in the incubator at 37° C., 5% CO2. The following day, 4× concentration of drug stocks were prepared, and then titrated as 10-fold serial dilutions producing 8-point dose curves and added at 50 μl per well in duplicate. Cells were then incubated for 48 hours at 37° C., 5% CO2. Cytotoxicity was measure by incubating with 100 μL Cell Titer Glo (Promega) solution for 1 hour, and then luminescence was measured on a Fusion HT plate reader (Perkin Elmer). Data was processed with Excel (Microsoft) and GraphPad (Prism) to produce dose response curves and IC50 values were generated and data collected.

[3] = system: MCF-7 cells; experiment: Free drug 48 hour Cell Titer Glo cytotoxicity, MCF-7; conditions: Homo sapiens, MCF7, Table 3, 48 hours, read-out: IC50 Summary for Free Drugs, MCF-7
Protocol: as §2

[4] = system: HL-60 cells; experiment: Free drug 48 hour Cell Titer Glo cytotoxicity, HL-60; conditions: Homo sapiens, Table 3, 48 hours, read-out: IC50 Summary for Free Drugs, HL-60
Protocol: as §2

[5] = system: HEL cells; experiment: Free drug 48 hour Cell Titer Glo cytotoxicity, HEL; conditions: Homo sapiens, Table 3, 48 hours, read-out: IC50 Summary for Free Drugs, HEL
Protocol: as §2

[6] = system: TF1a cells; experiment: Free drug 48 hour Cell Titer Glo cytotoxicity, TF1a; conditions: TF-1a, Table 3, 48 hours, read-out: IC50 Summary for Free Drugs, TF1a
Protocol: as §2

[7] = system: 786-O cells; experiment: Free drug 48 hour Cell Titer Glo cytotoxicity, 786-O; conditions: Homo sapiens, 786-0, Table 3, 48 hours, read-out: IC50 Summary for Free Drugs, 786-O
Protocol: as §2

[8] = system: THP-1 cells; experiment: Free drug 48 hour Cell Titer Glo cytotoxicity, THP-1; conditions: Homo sapiens, Table 3, 48 hours, read-out: IC50 Summary for Free Drugs, THP-1
Protocol: as §2

[9] = system: K562 human chronic myeloid leukaemia cells; experiment: K562 assay (MTT cytotoxicity); conditions: drug incubation 1 hour or 96 hours
Protocol: K562 human chronic myeloid leukaemia cells were maintained in RPM1 1640 medium supplemented with 10% fetal calf serum and 2 mM glutamine at 37° C. in a humidified atmosphere containing 5% CO2 and were incubated with a specified dose of drug for 1 hour or 96 hours at 37° C. in the dark. The incubation was terminated by centrifugation (5 min, 300 g) and the cells were washed once with drug-free medium. Following the appropriate drug treatment, the cells were transferred to 96-well microtiter plates (10^4 cells per well, 8 wells per sample). Plates were then kept in the dark at 37° C. in a humidified atmosphere containing 5% CO2. The assay is based on the ability of viable cells to reduce a yellow soluble tetrazolium salt, 3-(4,5-dimethylthiazol-2-yl)-2,5-diphenyl-2H-tetrazolium bromide (MTT, Aldrich-Sigma), to an insoluble purple formazan precipitate. Following incubation of the plates for 4 days (to allow control cells to increase in number by approximately 10 fold), 20 μL of MTT solution (5 mg/mL in phosphate-buffered saline) was added to each well and the plates further incubated for 5 h. The plates were then centrifuged for 5 min at 300 g and the bulk of the medium pipetted from the cell pellet leaving 10-20 μL per well. […] The optical density was then read at a wavelength of 550 nm on a Titertek Multiscan ELISA plate reader, and a dose-response curve was constructed. […]

[10] = system: 786-O renal cell carcinoma cell line (CD70+); experiment: ADC 96-hour resazurin cytotoxicity assay, 786-O
Protocol: (§3) The in vitro cytotoxic activity of the selected antibody drug conjugates was assessed using a resazurin (Sigma, St. Louis, Mo., USA) reduction assay (reference: Doronina et al., Nature Biotechnology, 2003, 21, 778-784). The antibody drug conjugates were prepared as described above in Example 13.
as §1, with “For the” for “For a”, “of ADC” for “of test article (i.e., free drug)”, “of ADC,” for “of test article,”

[11] = system: L428 Hodgkin lymphoma cell line (CD70+/30+); experiment: ADC 96-hour resazurin cytotoxicity assay, L428
Protocol: as §3
as §1, with “For the” for “For a”, “of ADC” for “of test article (i.e., free drug)”, “of ADC,” for “of test article,”

[12] = system: control (AML cell line); experiment: ADC 96-hour resazurin cytotoxicity assay, control line of Table 7
Protocol: as §3
as §1, with “For the” for “For a”, “of ADC” for “of test article (i.e., free drug)”, “of ADC,” for “of test article,”
Referring to Table 7, the in vitro cytotoxicity of ADCs containing PBD dimers on CD70^+ cell lines using the 96 hour assay is shown. […]

COc1ccc(C2=CN3C(=O)c4cc(OC)c(OCCCOc5cc6c(cc5OC)C(=O)N5C=C(c7ccc(CN)cc7)C[C@H]5C=N6)cc4N=C[C@@H]3C2)cc1 [Compound 32, (S)-2-(4-(aminomethyl)phenyl)-7-methoxy-8-(3-((S)-7-methoxy-2-(4-methoxyphenyl)-5-oxo-5,11a-dihydro-1H-pyrrolo[2,1-c][1,4]benzodiazepine-8-yloxy)propyloxy)-1H-pyrrolo[2,1-c][1,4]benzodiazepine-5(11aH)-one]
IC50 ([1]; MCF7, read-out: IC50 Summary for Free Drugs, MCF-7): 1 nM

COc1ccc(C2=CN3C(=O)c4cc(OC)c(OCCCCCOc5cc6c(cc5OC)C(=O)N5C=C(c7ccc(C=O)cc7)C[C@H]5C=N6)cc4N=C[C@@H]3C2)cc1 [Compound 25, 4-((S)-7-methoxy-8-(5-((S)-7-methoxy-2-(4-methoxyphenyl)-5-oxo-5,11a-dihydro-1H-pyrrolo[2,1-c][1,4]benzodiazepin-8-yloxy)pentyloxy)-5-oxo-5,11a-dihydro-1H-pyrrolo[2,1-c][1,4]benzodiazepine-2-yl)benzaldehyde]
IC50 [2]: 0.06 nM
IC50 [3]: 0.8 nM
IC50 [4]: 0.01 nM
IC50 [5]: 0.02 nM
IC50 [6]: 0.9 nM
IC50 [7]: 0.09 nM
IC50 [8]: 0.9 nM

COc1cc2c(cc1OCCCCCOc1cc3c(cc1OC)C(=O)N1C=C(c4cccc(N)c4)C[C@H]1C=N3)N=C[C@@H]1CC(c3ccc(N4CCN(C)CC4)cc3)=CN1C2=O [Compound 30, (S)-2-(3-aminophenyl)-7-methoxy-8-(5-((S)-7-methoxy-2-(4-(4-methylpiperazin-1-yl)phenyl)-5-oxo-5,11a-dihydro-H-pyrrolo[2,1-c][1,4]benzodiazepin-8-yloxy)pentyloxy)-1H-pyrrolo[2,1-c][1,4]benzodiazepine-5(11aH)-one]
IC50 ([1]; MCF7, Table 2, read-out: IC50 Summary for Free Drugs, MCF-7): 0.01 nM

COc1ccc(C2=CN3C(=O)c4cc(OC)c(OCCCCCOc5cc6c(cc5OC)C(=O)N5C=C(c7ccc(N)cc7)C[C@H]5C=N6)cc4N=C[C@@H]3C2)cc1 [Compound 13, (S)-2-(4-aminophenyl)-7-methoxy-8-(5-((S)-7-methoxy-2-(4-methoxyphenyl)-5-oxo-5,11a-dihydro-1H-pyrrolo[2,1-c][1,4]benzodiazepine-8-yloxy)pentyloxy)-H-pyrrolo[2,1-c][1,4]benzodiazepine-5(11aH)-one]
IC50 [9]: 0.03 nM

COc1ccc(C2=CN3C(=O)c4cc(OC)c(OCCCCCOc5cc6c(cc5OC)C(=O)N5C=C(c7ccc(O)cc7)C[C@H]5C=N6)cc4N=C[C@@H]3C2)cc1 [Compound 23, (S)-2-(4-hydroxyphenyl)-7-methoxy-8-(5-((S)-7-methoxy-2-(4-methoxyphenyl)-5-oxo-5,11a-dihydro-1H-pyrrolo[2,1-c][1,4]benzodiazepin-8-yloxy)pentyloxy)-1H-pyrrolo[2,1-c][1,4]benzodiazepine-5(11aH)-one]
IC50 [2]: 0.02 nM
IC50 [3]: 0.7 nM
IC50 [4]: 0.005 nM
IC50 [5]: 0.009 nM
IC50 [6]: 0.2 nM
IC50 [7]: 0.06 nM
IC50 [8]: 0.4 nM

B1: h1F6-44 (3.5 dr/mAb) (conjugate, chains of the INN, looked up)
VH: QVQLVQSGAEVKKPGASVKVSCKASGYTFTNYGMNWVRQAPGQGLKWMGWINTYTGEPTYADAFKGRVTMTRDTSISTAYMELSRLRSDDTAVYYCARDYGDYGMDYWGQGTTVTVSS
VL: DIVMTQSPDSLAVSLGERATINCRASKSVSTSGYSFMHWYQQKPGQPPKLLIYLASNLESGVPDRFSGSGSGTDFTLTISSLQAEDVAVYYCQHSREVPWTFGQGTKVEIK
modifications: drug-linker 44 conjugate, 3.5 drugs/mAb
In vitro cytotoxic activity (IC50), 786-O [10]: 1.124 µg/mL
In vitro cytotoxic activity (IC50), L428 [11]: 2.142 µg/mL

B2: h1F6 54 (4 dr/rnAb) (conjugate, chains of the INN, looked up)
VH: QVQLVQSGAEVKKPGASVKVSCKASGYTFTNYGMNWVRQAPGQGLKWMGWINTYTGEPTYADAFKGRVTMTRDTSISTAYMELSRLRSDDTAVYYCARDYGDYGMDYWGQGTTVTVSS
VL: DIVMTQSPDSLAVSLGERATINCRASKSVSTSGYSFMHWYQQKPGQPPKLLIYLASNLESGVPDRFSGSGSGTDFTLTISSLQAEDVAVYYCQHSREVPWTFGQGTKVEIK
modifications: drug-linker 54, 4 drugs/mAb
In vitro cytotoxic activity (IC50), 786O [10]: No effect
In vitro cytotoxic activity (IC50), control [12]: No effect
In vitro cytotoxic activity (IC50), L428 [11]: No effect

B3: h1F6- 43(4 dr/rnAb) (conjugate, chains of the INN, looked up)
VH: QVQLVQSGAEVKKPGASVKVSCKASGYTFTNYGMNWVRQAPGQGLKWMGWINTYTGEPTYADAFKGRVTMTRDTSISTAYMELSRLRSDDTAVYYCARDYGDYGMDYWGQGTTVTVSS
VL: DIVMTQSPDSLAVSLGERATINCRASKSVSTSGYSFMHWYQQKPGQPPKLLIYLASNLESGVPDRFSGSGSGTDFTLTISSLQAEDVAVYYCQHSREVPWTFGQGTKVEIK
modifications: drug-linker 43, 4 drugs/mAb
In vitro cytotoxic activity (IC50), 786O [10]: 0.011 µg/mL
In vitro cytotoxic activity (IC50), control [12]: 1.205 µg/mL
In vitro cytotoxic activity (IC50), L428 [11]: 0.404 µg/mL
